Values of other authors in US20060073479A1 (priority 2001, published 2006).

Legend:
CYP3A4 = CYP3A4 (Homo sapiens, UniProt P08684); conditions: in vitro studies
[1] = tested on: patients treated with paclitaxel; conditions: in vivo
CYP2C8 = target: T1, CYP2C8 (Homo sapiens, UniProt P10632); conditions: in vitro studies
T1 sequence (P10632 1-490): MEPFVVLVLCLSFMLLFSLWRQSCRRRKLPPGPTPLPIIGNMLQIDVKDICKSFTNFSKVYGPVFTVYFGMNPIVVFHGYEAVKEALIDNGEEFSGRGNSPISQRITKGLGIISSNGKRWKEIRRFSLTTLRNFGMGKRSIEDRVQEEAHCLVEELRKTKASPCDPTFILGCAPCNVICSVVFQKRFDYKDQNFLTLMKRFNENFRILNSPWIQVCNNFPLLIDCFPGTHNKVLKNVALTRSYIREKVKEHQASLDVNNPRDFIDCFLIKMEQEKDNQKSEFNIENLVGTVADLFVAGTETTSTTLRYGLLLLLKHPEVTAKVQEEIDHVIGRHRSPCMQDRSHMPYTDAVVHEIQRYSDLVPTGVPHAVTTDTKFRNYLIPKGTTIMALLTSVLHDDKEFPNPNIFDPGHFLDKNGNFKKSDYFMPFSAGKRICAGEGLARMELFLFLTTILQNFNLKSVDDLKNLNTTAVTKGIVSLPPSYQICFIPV

[2] = urine and feces

Sequence of CYP3A4 (P08684 whole entry): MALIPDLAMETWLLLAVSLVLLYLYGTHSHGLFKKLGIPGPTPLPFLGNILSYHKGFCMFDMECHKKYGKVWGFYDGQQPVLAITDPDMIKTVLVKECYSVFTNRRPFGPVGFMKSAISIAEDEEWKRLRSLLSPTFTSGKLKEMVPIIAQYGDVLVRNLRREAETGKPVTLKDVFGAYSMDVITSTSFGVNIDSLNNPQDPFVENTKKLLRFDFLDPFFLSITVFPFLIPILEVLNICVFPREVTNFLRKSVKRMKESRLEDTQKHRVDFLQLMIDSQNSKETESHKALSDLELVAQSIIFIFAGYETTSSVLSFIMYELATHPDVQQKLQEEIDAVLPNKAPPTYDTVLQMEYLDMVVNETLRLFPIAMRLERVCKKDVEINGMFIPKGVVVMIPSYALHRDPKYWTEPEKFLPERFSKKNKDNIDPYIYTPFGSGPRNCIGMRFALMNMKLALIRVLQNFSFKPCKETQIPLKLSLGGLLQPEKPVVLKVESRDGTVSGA

Row | metabolism by CYP3A4 (CYP3A4) | metabolism by CYP2C8 (CYP2C8) | Structure (SMILES) | fraction of treated patients refractory to beneficial effect [1] | metabolism / excretion in words [2]
1 | to a lesser extent by CYP3A4 | metabolized by CYP2C8 | CC(=O)O[C@H]1C(=O)[C@@]2(C)[C@H]([C@H](OC(=O)c3ccccc3)[C@]3(O)C[C@H](OC(=O)[C@H](O)[C@@H](NC(=O)c4ccccc4)c4ccccc4)C(C)=C1C3(C)C)[C@]1(OC(C)=O)CO[C@@H]1C[C@@H]2O [paclitaxel] | about one-third | 
2 |  |  | N.N.O=C([O-])C1(C(=O)[O-])CCC1.[Pt+2] [carboplatin] |  | relatively stable and excreted largely in unchanged form in the urine
